The NIST ThermoML archive (doi:10.1007/s10765-010-0719-7)
± gives the expanded uncertainty stated by the source.

Key:
[1] = refractive index (Na D-line) (dimensionless); settings: 303.15 K; 101.33 kPa; Liquid; Standard Abbe refractometry
[2] = 101 kPa, Liquid; for mass density: Pycnometric method
[3] = refractive index (Na D-line) (dimensionless); xn = mol fraction of the nth substance listed; settings: 303.15 K, 101 kPa, Liquid, Standard Abbe refractometry
[4] = xn = mol fraction of the nth substance listed; settings: 101 kPa, Liquid; for mass density: Pycnometric method

CCCCOCCO [2-butoxyethan-1-ol]
Settings	refractive index
[1]	1.415 ± 0.0005

[2]
Settings	mass density [kg/m3]	speed of sound [m/s]	viscosity [mPa·s]
303.15 K	892 ± 0.6	1288.4 ± 1.3	2.486 ± 0.056
313.15 K	884.2 ± 0.6	–	1.979 ± 0.046
323.15 K	877.5 ± 0.7	–	1.653 ± 0.039

CCCCOCCO [2-butoxyethan-1-ol] + CC(C)CCO
[3]
Settings	refractive index
x2 = 0	1.415 ± 0.0005
x2 = 0.1297	1.4138 ± 0.0005
x2 = 0.251	1.4127 ± 0.0005
x2 = 0.3649	1.4115 ± 0.0005
x2 = 0.472	1.4104 ± 0.0005
x2 = 0.5728	1.4093 ± 0.0005
x2 = 0.6679	1.408 ± 0.0005
x2 = 0.7578	1.4069 ± 0.0005
x2 = 0.8428	1.4058 ± 0.0005
x2 = 0.9235	1.4047 ± 0.0005

[4]
Settings	mass density, 303.15 K [kg/m3]	mass density, 313.15 K [kg/m3]	mass density, 323.15 K [kg/m3]	speed of sound, 303.15 K [m/s]	viscosity, 303.15 K [mPa·s]	viscosity, 313.15 K [mPa·s]	viscosity, 323.15 K [mPa·s]
x2 = 0	892 ± 0.6	884.2 ± 0.6	877.5 ± 0.7	1288.4 ± 1.3	2.486 ± 0.056	1.979 ± 0.046	1.653 ± 0.039
x2 = 0.1297	882.2 ± 0.6	874.5 ± 0.6	867.7 ± 0.7	1279.8 ± 1.3	2.483 ± 0.056	1.969 ± 0.045	1.623 ± 0.038
x2 = 0.251	872.5 ± 0.6	865.4 ± 0.6	858.2 ± 0.6	1270.3 ± 1.3	2.496 ± 0.056	1.967 ± 0.045	1.629 ± 0.038
x2 = 0.3649	863.1 ± 0.6	856.1 ± 0.6	848.8 ± 0.6	1261.8 ± 1.3	2.514 ± 0.057	1.987 ± 0.046	1.636 ± 0.038
x2 = 0.472	853.9 ± 0.6	847.2 ± 0.6	839.8 ± 0.6	1251.8 ± 1.3	2.557 ± 0.058	1.997 ± 0.046	1.65 ± 0.039
x2 = 0.5728	845 ± 0.6	837.9 ± 0.6	831 ± 0.6	1242.3 ± 1.3	2.594 ± 0.059	2.028 ± 0.047	1.673 ± 0.039
x2 = 0.6679	838.6 ± 0.6	829.5 ± 0.6	822.3 ± 0.6	1233.5 ± 1.3	2.653 ± 0.06	2.067 ± 0.048	1.702 ± 0.04
x2 = 0.7578	827.7 ± 0.6	821 ± 0.6	813.9 ± 0.6	1224.2 ± 1.3	2.748 ± 0.062	2.121 ± 0.049	1.737 ± 0.04
x2 = 0.8428	819.3 ± 0.6	812.5 ± 0.6	805.7 ± 0.6	1215.3 ± 1.3	2.877 ± 0.065	2.2 ± 0.05	1.798 ± 0.042
x2 = 0.9235	811.1 ± 0.6	804.6 ± 0.6	797.6 ± 0.6	1206.4 ± 1.3	3.058 ± 0.068	2.303 ± 0.053	1.851 ± 0.043

CCOCCO [2-ethoxyethan-1-ol]
Settings	refractive index
[1]	1.4065 ± 0.0005

[2]
Settings	mass density [kg/m3]	speed of sound [m/s]	viscosity [mPa·s]
303.15 K	919.5 ± 0.6	1301.5 ± 1.3	1.623 ± 0.038
313.15 K	912 ± 0.6	–	1.355 ± 0.032
323.15 K	903.8 ± 0.7	–	1.143 ± 0.028

CCOCCO [2-ethoxyethan-1-ol] + CC(C)CCO
[3]
Settings	refractive index
x2 = 0	1.4065 ± 0.0005
x2 = 0.102	1.4062 ± 0.0005
x2 = 0.2036	1.4059 ± 0.0005
x2 = 0.3047	1.4055 ± 0.0005
x2 = 0.4053	1.4052 ± 0.0005
x2 = 0.5055	1.4049 ± 0.0005
x2 = 0.6053	1.4046 ± 0.0005
x2 = 0.7046	1.4043 ± 0.0005
x2 = 0.8035	1.404 ± 0.0005
x2 = 0.902	1.4037 ± 0.0005

[4]
Settings	mass density, 303.15 K [kg/m3]	mass density, 313.15 K [kg/m3]	mass density, 323.15 K [kg/m3]	speed of sound, 303.15 K [m/s]	viscosity, 303.15 K [mPa·s]	viscosity, 313.15 K [mPa·s]	viscosity, 323.15 K [mPa·s]
x2 = 0	919.5 ± 0.6	912 ± 0.6	903.8 ± 0.7	1301.5 ± 1.3	1.623 ± 0.038	1.355 ± 0.032	1.143 ± 0.028
x2 = 0.102	906.1 ± 0.6	898.6 ± 0.6	890.5 ± 0.7	1292.4 ± 1.3	1.688 ± 0.039	1.385 ± 0.033	1.169 ± 0.028
x2 = 0.2036	892.9 ± 0.6	885.6 ± 0.6	877.7 ± 0.7	1282.4 ± 1.3	1.761 ± 0.041	1.424 ± 0.034	1.196 ± 0.029
x2 = 0.3047	880.1 ± 0.6	872.9 ± 0.6	865.1 ± 0.7	1272.7 ± 1.3	1.812 ± 0.042	1.469 ± 0.035	1.222 ± 0.029
x2 = 0.4053	867.7 ± 0.6	860.5 ± 0.6	853 ± 0.7	1262.9 ± 1.3	1.892 ± 0.044	1.53 ± 0.036	1.263 ± 0.03
x2 = 0.5055	855.8 ± 0.6	848.7 ± 0.6	841.3 ± 0.6	1251.2 ± 1.3	1.994 ± 0.046	1.604 ± 0.038	1.31 ± 0.031
x2 = 0.6053	844.3 ± 0.6	837.3 ± 0.6	830 ± 0.6	1240.6 ± 1.3	2.124 ± 0.049	1.68 ± 0.039	1.377 ± 0.033
x2 = 0.7046	833.3 ± 0.6	826.4 ± 0.6	819.2 ± 0.6	1229.3 ± 1.3	2.301 ± 0.052	1.812 ± 0.042	1.46 ± 0.034
x2 = 0.8035	822.8 ± 0.6	815.9 ± 0.6	808.8 ± 0.6	1219.2 ± 1.3	2.496 ± 0.056	1.945 ± 0.045	1.566 ± 0.037
x2 = 0.902	812.6 ± 0.6	805.8 ± 0.6	799 ± 0.6	1208.7 ± 1.3	2.807 ± 0.063	2.143 ± 0.049	1.728 ± 0.04

COCCO [2-methoxyethan-1-ol]
Settings	refractive index
[1]	1.3983 ± 0.0005

[2]
Settings	mass density [kg/m3]	speed of sound [m/s]	viscosity [mPa·s]
303.15 K	956.8 ± 0.6	1324.3 ± 1.4	1.55 ± 0.036
313.15 K	946.3 ± 0.7	–	1.288 ± 0.031
323.15 K	937.8 ± 0.7	–	1.082 ± 0.026

COCCO [2-methoxyethan-1-ol] + CC(C)CCO
Settings	refractive index
[3], x2 = 0	1.3983 ± 0.0005

[4], x2 = 0
Settings	mass density [kg/m3]	speed of sound [m/s]	viscosity [mPa·s]
303.15 K	956.8 ± 0.6	1324.3 ± 1.4	1.55 ± 0.036
313.15 K	946.3 ± 0.7	–	1.288 ± 0.031
323.15 K	937.8 ± 0.7	–	1.082 ± 0.026

CC(C)CCO [3-methylbutan-1-ol]
Settings	refractive index
[1]	1.4035 ± 0.0005

[2]
Settings	mass density [kg/m3]	speed of sound [m/s]	viscosity [mPa·s]
303.15 K	803.1 ± 0.6	1197.4 ± 1.3	3.262 ± 0.073
313.15 K	796.4 ± 0.6	–	2.441 ± 0.055
323.15 K	789.8 ± 0.6	–	1.94 ± 0.045

CC(C)CCO [3-methylbutan-1-ol] + CCCCOCCO
Settings	refractive index
[3], x1 = 1	1.4035 ± 0.0005

[4], x1 = 1
Settings	mass density [kg/m3]	speed of sound [m/s]	viscosity [mPa·s]
303.15 K	803.1 ± 0.6	1197.4 ± 1.3	3.262 ± 0.073
313.15 K	796.4 ± 0.6	–	2.441 ± 0.055
323.15 K	789.8 ± 0.6	–	1.94 ± 0.045

CC(C)CCO [3-methylbutan-1-ol] + CCOCCO
Settings	refractive index
[3], x1 = 1	1.4035 ± 0.0005

[4], x1 = 1
Settings	mass density [kg/m3]	speed of sound [m/s]	viscosity [mPa·s]
303.15 K	803.1 ± 0.6	1197.4 ± 1.3	3.262 ± 0.073
313.15 K	796.4 ± 0.6	–	2.441 ± 0.055
323.15 K	789.8 ± 0.6	–	1.94 ± 0.045

CC(C)CCO [3-methylbutan-1-ol] + COCCO
[3]
Settings	refractive index
x1 = 0.0875	1.3988 ± 0.0005
x1 = 0.1775	1.3993 ± 0.0005
x1 = 0.2701	1.3999 ± 0.0005
x1 = 0.3653	1.4004 ± 0.0005
x1 = 0.4633	1.4009 ± 0.0005
x1 = 0.5643	1.4014 ± 0.0005
x1 = 0.6683	1.402 ± 0.0005
x1 = 0.7754	1.4025 ± 0.0005
x1 = 0.886	1.403 ± 0.0005
x1 = 1	1.4035 ± 0.0005

[4]
Settings	mass density, 303.15 K [kg/m3]	mass density, 313.15 K [kg/m3]	mass density, 323.15 K [kg/m3]	speed of sound, 303.15 K [m/s]	viscosity, 303.15 K [mPa·s]	viscosity, 313.15 K [mPa·s]	viscosity, 323.15 K [mPa·s]
x1 = 0.0875	938.3 ± 0.6	928.2 ± 0.6	919.8 ± 0.7	1312.1 ± 1.3	1.578 ± 0.037	1.312 ± 0.031	1.111 ± 0.027
x1 = 0.1775	920.5 ± 0.6	910.8 ± 0.6	902.8 ± 0.7	1299.2 ± 1.3	1.611 ± 0.038	1.341 ± 0.032	1.153 ± 0.028
x1 = 0.2701	903.2 ± 0.6	893.9 ± 0.6	885.9 ± 0.7	1287.4 ± 1.3	1.652 ± 0.039	1.376 ± 0.033	1.169 ± 0.028
x1 = 0.3653	886.7 ± 0.6	877.6 ± 0.6	870 ± 0.7	1274.8 ± 1.3	1.749 ± 0.041	1.432 ± 0.034	1.192 ± 0.029
x1 = 0.4633	870.8 ± 0.6	862.2 ± 0.6	854.7 ± 0.7	1261.2 ± 1.3	1.82 ± 0.042	1.482 ± 0.035	1.224 ± 0.029
x1 = 0.5643	855.8 ± 0.6	847.6 ± 0.6	840.1 ± 0.7	1248.8 ± 1.3	1.934 ± 0.045	1.554 ± 0.036	1.28 ± 0.031
x1 = 0.6683	841.5 ± 0.6	833.6 ± 0.6	826.3 ± 0.6	1235.7 ± 1.3	2.119 ± 0.049	1.667 ± 0.039	1.355 ± 0.032
x1 = 0.7754	827.8 ± 0.6	820.5 ± 0.6	813.2 ± 0.6	1223.3 ± 1.3	2.354 ± 0.053	1.834 ± 0.043	1.481 ± 0.035
x1 = 0.886	815.1 ± 0.6	808.1 ± 0.6	801.1 ± 0.6	1210.5 ± 1.3	2.715 ± 0.061	2.06 ± 0.047	1.671 ± 0.039
x1 = 1	803.1 ± 0.6	796.4 ± 0.6	789.8 ± 0.6	1197.4 ± 1.3	3.262 ± 0.073	2.441 ± 0.055	1.94 ± 0.045
